Converted amounts (≈) assume the structure as drawn.
Columns and labels:
Glucocorticoid receptor [1] = molecular target: T1, Glucocorticoid receptor (Homo sapiens, UniProt P04150); assay: Transrepression activity at glucocorticoid receptorin human HeLa cells assessed as inhibition of TPA-induced collagenase promoter activity by luciferase reporter gene assay; format: cell-based
T1 sequence (P04150 whole entry): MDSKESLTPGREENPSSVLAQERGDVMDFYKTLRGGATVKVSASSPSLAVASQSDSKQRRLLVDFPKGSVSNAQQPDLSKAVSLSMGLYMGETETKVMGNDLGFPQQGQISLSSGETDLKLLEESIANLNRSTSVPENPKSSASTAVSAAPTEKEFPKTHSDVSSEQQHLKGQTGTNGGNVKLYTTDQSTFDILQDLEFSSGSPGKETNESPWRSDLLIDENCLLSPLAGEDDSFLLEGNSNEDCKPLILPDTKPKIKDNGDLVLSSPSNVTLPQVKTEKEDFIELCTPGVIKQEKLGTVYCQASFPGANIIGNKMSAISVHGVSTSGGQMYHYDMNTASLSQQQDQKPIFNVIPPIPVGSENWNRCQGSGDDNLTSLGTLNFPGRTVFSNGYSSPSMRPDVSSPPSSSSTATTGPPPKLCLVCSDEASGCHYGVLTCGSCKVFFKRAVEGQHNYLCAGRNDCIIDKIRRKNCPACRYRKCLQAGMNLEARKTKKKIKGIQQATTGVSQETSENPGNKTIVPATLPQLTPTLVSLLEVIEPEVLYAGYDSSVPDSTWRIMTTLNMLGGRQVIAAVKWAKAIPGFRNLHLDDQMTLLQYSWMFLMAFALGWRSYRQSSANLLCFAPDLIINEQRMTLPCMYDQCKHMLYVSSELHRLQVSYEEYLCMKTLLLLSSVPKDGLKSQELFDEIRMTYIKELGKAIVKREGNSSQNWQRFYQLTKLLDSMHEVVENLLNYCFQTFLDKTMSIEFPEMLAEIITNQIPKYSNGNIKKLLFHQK

Glucocorticoid receptor [2] = molecular target: T1, Glucocorticoid receptor; assay: Transactivation activity at glucocorticoid receptor in human HeLa cells assessed as induction of MMTV promoter activity by luciferase reporter gene assay; format: cell-based
Glucocorticoid receptor [3] = molecular target: T1, Glucocorticoid receptor; assay: Transrepression activity at glucocorticoid receptor in human THP1 cells assessed as receptor-mediated anti-inflammatory activity by measuring inhibition of LPS-induced IL-8 production; format: cell-based
Glucocorticoid receptor [4] = molecular target: T1, Glucocorticoid receptor; assay: Binding affinity to recombinant human glucocorticoid receptor expressed in baculovirus infected sf9 cells
Progesterone receptor = molecular target: T2, Progesterone receptor (Homo sapiens, UniProt P06401); assay: Binding affinity to recombinant human progesterone receptor expressed in baculovirus infected sf9 cells
T2 sequence (P06401 whole entry): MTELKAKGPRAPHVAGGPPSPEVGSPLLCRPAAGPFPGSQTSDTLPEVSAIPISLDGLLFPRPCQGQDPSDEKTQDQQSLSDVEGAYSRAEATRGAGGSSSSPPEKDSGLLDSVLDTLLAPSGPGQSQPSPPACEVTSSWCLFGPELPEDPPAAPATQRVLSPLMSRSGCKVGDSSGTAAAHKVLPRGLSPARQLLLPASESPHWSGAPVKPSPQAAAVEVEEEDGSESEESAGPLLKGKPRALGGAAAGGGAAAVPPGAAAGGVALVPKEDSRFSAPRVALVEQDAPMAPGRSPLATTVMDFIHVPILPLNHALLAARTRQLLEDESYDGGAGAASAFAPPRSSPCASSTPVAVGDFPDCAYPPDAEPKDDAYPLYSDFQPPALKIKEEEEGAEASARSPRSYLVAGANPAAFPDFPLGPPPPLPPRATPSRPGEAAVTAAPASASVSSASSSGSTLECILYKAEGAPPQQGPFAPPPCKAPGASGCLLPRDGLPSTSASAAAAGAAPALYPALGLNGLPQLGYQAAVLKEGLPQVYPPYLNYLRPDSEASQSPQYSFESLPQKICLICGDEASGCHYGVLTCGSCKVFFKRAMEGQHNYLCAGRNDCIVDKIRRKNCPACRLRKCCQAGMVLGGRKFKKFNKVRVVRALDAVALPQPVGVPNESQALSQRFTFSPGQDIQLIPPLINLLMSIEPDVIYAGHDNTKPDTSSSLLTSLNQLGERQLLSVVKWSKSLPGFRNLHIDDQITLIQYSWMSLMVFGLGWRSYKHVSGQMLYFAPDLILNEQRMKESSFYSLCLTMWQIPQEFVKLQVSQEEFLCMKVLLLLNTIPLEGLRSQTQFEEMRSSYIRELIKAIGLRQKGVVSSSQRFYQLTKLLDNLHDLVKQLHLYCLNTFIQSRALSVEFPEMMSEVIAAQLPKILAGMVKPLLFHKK

[5] = molecular target: T3, Mineralocorticoid receptor (Homo sapiens, UniProt P08235); assay: Binding affinity to recombinant human mineralocorticoid receptor expressed in baculovirus infected sf9 cells
T3 sequence (P08235 whole entry): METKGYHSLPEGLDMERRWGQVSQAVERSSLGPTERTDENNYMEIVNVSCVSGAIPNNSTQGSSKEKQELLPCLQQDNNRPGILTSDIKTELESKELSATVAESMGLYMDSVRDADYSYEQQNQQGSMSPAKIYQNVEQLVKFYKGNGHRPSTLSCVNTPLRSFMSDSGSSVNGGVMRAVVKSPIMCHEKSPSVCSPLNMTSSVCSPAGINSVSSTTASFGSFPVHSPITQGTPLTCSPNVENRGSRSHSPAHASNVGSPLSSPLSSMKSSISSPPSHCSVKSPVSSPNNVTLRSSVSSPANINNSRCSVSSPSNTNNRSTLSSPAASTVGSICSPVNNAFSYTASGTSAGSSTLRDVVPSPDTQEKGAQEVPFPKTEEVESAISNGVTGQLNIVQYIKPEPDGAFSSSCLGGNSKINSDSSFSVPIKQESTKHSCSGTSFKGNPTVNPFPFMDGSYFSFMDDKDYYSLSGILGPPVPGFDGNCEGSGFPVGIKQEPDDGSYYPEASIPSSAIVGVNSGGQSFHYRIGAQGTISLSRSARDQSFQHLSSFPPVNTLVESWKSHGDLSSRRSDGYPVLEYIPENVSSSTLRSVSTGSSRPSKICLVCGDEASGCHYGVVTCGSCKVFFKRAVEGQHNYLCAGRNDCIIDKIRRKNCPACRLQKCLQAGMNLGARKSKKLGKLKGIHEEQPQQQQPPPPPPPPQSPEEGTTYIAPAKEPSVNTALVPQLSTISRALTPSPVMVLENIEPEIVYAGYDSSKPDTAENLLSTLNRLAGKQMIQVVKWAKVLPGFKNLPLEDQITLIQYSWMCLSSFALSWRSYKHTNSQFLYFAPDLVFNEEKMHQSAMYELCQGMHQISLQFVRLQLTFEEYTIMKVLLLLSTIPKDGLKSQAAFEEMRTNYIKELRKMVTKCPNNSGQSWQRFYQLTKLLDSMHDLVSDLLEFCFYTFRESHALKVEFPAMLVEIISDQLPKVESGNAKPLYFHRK

Androgen receptor = molecular target: T4, Androgen receptor (Homo sapiens, UniProt P10275); assay: Binding affinity to recombinant human androgen receptor expressed in baculovirus infected sf9 cells
T4 sequence (P10275 whole entry): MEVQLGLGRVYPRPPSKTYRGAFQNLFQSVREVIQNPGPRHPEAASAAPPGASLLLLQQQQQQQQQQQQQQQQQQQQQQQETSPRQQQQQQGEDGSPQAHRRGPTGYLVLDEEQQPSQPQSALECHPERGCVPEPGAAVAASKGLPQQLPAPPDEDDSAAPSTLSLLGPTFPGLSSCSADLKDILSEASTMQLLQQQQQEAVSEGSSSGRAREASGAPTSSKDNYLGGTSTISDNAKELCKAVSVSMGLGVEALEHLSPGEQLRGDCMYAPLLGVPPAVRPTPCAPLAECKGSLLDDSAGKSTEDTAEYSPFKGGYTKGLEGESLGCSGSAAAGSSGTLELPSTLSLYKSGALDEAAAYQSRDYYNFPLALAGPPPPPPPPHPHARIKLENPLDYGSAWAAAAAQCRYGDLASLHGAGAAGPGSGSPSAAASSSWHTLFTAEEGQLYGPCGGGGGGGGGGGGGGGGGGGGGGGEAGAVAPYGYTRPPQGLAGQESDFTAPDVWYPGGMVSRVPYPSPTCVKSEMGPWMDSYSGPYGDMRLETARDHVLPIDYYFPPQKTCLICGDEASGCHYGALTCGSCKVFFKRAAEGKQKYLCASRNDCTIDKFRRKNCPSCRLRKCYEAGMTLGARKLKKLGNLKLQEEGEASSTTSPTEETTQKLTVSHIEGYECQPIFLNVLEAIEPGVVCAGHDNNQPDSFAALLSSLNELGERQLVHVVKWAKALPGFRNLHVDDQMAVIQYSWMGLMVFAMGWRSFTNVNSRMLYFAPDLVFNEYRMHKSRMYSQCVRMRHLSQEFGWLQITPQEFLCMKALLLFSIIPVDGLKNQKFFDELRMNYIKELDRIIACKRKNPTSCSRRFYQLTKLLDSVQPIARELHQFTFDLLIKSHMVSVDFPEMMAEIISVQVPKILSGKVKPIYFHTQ

[6] = Stability in human liver microsomes assessed as drug recovery after 30 mins; format: ADME, microsome; details: read-out: Drug recovery
[7] = Thermodynamic solubility of the compound in 0.1 M phosphate buffer at pH 7.4 at 25 degC; format: physicochemical; details: read-out: Therm_solubility
[8] = Lipophilicity, log P of the compound; format: physicochemical; details: octanol/water
[9] = Blood clearance in rat at 1.25 mg/kg, iv administered as bolus dose; format: ADME, organism-based; details: whole blood
[10] = Volume of distribution at steady state in rat at 1.25 mg/kg, iv administered as bolus dose; format: ADME, organism-based; details: in vivo, read-out: Vdss
[11] = Half life in rat at 1.25 mg/kg, iv administered as bolus dose; format: ADME, organism-based; details: in vivo
[12] = Oral bioavailability in rat at 10 mg/kg dosed as microcrystalline suspension; format: ADME, organism-based; details: in vivo
Rattus norvegicus [13] = assay: Anti-inflammatory activity in po dosed Wistar rat assessed as inhibition of croton oil-induced ear edema; format: functional
Rattus norvegicus [14] = assay: Anti-inflammatory activity in po dosed Brown Norway rat assessed as inhibition of TMA-induced ear edema; format: functional
Rattus norvegicus [15] = assay: Anti-inflammatory activity in Wistar rat assessed as inhibition of croton oil-induced ear edema at 30 mg/kg, po relative to control; format: functional
Rattus norvegicus [16] = assay: Anti-inflammatory activity in Brown Norway rat assessed as inhibition of TMA-induced ear edema at 30 mg/kg, po relative to control; format: functional

IC50 (Glucocorticoid receptor [1])	pEC50 (Glucocorticoid receptor [2])	IC50 (Glucocorticoid receptor [3])	IC50 (Glucocorticoid receptor [4])	IC50 (Progesterone receptor)	IC50 [5]	IC50 (Androgen receptor)	remaining at 0.5 h [6]	solubility thermodynamic [7]	logP [8]	clearance [9]	Vd [10]	half-life [11]	bioavailability [12]	Structure (SMILES)	ED50 (Rattus norvegicus [13])	ED50 (Rattus norvegicus [14])	Imax (Rattus norvegicus [15])	Imax (Rattus norvegicus [16])
6.31 nM	7.6	6.31 nM	126 nM	> 1000 nM	> 1000 nM	> 1000 nM	98%	26 µg/mL (≈ 57.3 µM)	4	26.7 mL/min/kg	11 L/kg	5.8 h	59%	CC[C@@H]1C[C@](O)(C(F)(F)F)[C@@H](Nc2cc(F)cc3nc(C)ncc23)c2ccc(F)c(O)c21	1.4 mg/kg	1.3 mg/kg	124%	55%
15.8 nM	7.6	15.8 nM	15.8 nM	794 nM	> 1000 nM	794 nM	–	–	–	–	–	–	–	CC1(C)C[C@](O)(C(F)(F)F)[C@@H](Nc2cccc3[nH]c(=O)ccc23)c2ccc(F)c(O)c21	–	–	–	–
20 nM	7.4	20 nM	15.8 nM	> 1000 nM	> 1000 nM	> 1000 nM	–	–	–	–	–	–	–	Cc1ccc2c(N[C@H]3c4ccc(F)c(O)c4[C@H](C)C[C@]3(O)C(F)(F)F)cccc2n1	–	–	–	–
6.31 nM	7.9	6.31 nM	20 nM	794 nM	> 1000 nM	316 nM	48%	–	–	–	–	–	–	CC1(C)C[C@](O)(C(F)(F)F)[C@@H](Nc2cccc3c(=O)[nH]ccc23)c2ccc(F)c(O)c21 (racemic)	–	–	–	–

The remaining lines, values behind:

Structure (SMILES)	IC50 (Glucocorticoid receptor [1])	pEC50 (Glucocorticoid receptor [2])	IC50 (Glucocorticoid receptor [3])	IC50 (Glucocorticoid receptor [4])	IC50 (Progesterone receptor)	IC50 [5]	IC50 (Androgen receptor)	remaining at 0.5 h [6]	solubility thermodynamic [7]	logP [8]	clearance [9]	Vd [10]	half-life [11]	bioavailability [12]	ED50 (Rattus norvegicus [13])	ED50 (Rattus norvegicus [14])	Imax (Rattus norvegicus [15])	Imax (Rattus norvegicus [16])
C=C(C)C[C@@](O)([C@@H](Nc1cccc2c(=O)[nH]ccc12)c1cc(Br)ccc1O)C(F)(F)F (racemic)	20 nM	6.8	20 nM	63.1 nM	631 nM	> 1000 nM	> 1000 nM	–	–	–	–	–	–	–	–	–	–	–
C[C@@H]1C[C@H]2[C@@H]3CCC4=CC(=O)C=C[C@]4(C)[C@@]3(F)[C@@H](O)C[C@]2(C)[C@@]1(O)C(=O)CO [DEXAMETHASONE]	–	–	–	–	> 1000 nM	–	–	–	–	–	–	–	–	–	–	–	–	–
C[C@]12C=CC(=O)C=C1CC[C@@H]1[C@@H]2[C@@H](O)C[C@@]2(C)[C@H]1CC[C@]2(O)C(=O)CO [PREDNISOLONE]	–	–	–	–	–	–	–	–	–	–	–	–	–	–	15.7 mg/kg	6.7 mg/kg	83%	107%
